Earlier results, collected in patent US10792481B2, “Implantable drug delivery device” (Nano Precision Medical, Inc., priority 2014, dated 2020).

Conditions: 37° C., 0.2 atmosphere partial pressure

O=O [oxygen]
solubility of oxygen in water: about 7 mg/liter
